The values that follow come from patent US12410143B2, “Therapeutic inhibitors of the reverse mode of ATP synthase” (priority 2017, dated 2025).

SMILES strings stand for the structures.

Data set [1] deals with T1, F1F0 ATP hydrolase (Bos taurus, UniProt P00829+P19483).
T1 construct: in NADH-linked and NADPH-linked sub-mitochondrial (SMP) assays respectively; host or cells: sub-mitochondrial particles (SMPs)
To be noted: Best Mode structure, SMP assay [5-6]; read-out: EC50 against F1F0ATP hydrolysis; cited from earlier work.

The conditions of data set [2]: rats, cited from earlier work.
Data set [3] concerns the target T1, F1F0 ATP hydrolase. The data set is described as follows: NADH-linked sub-mitochondrial (SMP) assay of F1F0 ATP hydrolysis. To be noted: NADH-linked and NADPH-linked SMP assays [5-6]. It is filed as biochemical, bovine. The source says: For example, by separately assaying (in space and/or time) the compounds's effect upon ATP synthesis and ATP hydrolysis by ATP synthase (in its entirety or, less preferably, a component part of it). Then comparing these assay results. The greater the inhibition of reverse vs. forward mode, the more preferred this compound is for anti-cancer use. A further method is by screening/seeking compounds that inhibit ATP hydrolysis more than synthesis in submitochondrial particles (SMPs). ATP hydrolysis can be assayed by (non-limiting example) a spectroscopic assay for NADH fluorescence that incubates the SMPs with pyruvate kinase and lactate dehydrogenase enzymes (assay well-known to those of the art). ATP synthesis can be assayed by (non-limiting example) a spectroscopic assay for NADPH fluorescence that incubates the SMPs with hexokinase and glucose-6-phosphate dehydrogenase enzymes (assay well-known to those of the art). These assays are reported in any one of [5, 7, 8, 11, 12, 13, 36], and/or as referenced therein, all of which are herein incorporated in their entirety.
Compounds from, selected as specific anti-cancer therapeutics by the invention of this disclosure, selected because they inhibit the reverse, more than the forward, mode of ATP synthase. EC50 and IC50 used interchangeably. […]

For the compound `N#Cc1cccc(C(=O)/N=C(\Nc2ccc(Cl)cc2)N[C@H](Cn2ccnc2)c2ccc(Cl)cc2Cl)c1`, the EC50 on F1F0 ATP hydrolase [1] was 18 nM. In data set [2], the Cmax is 21 µM and the volume of distribution is given as 2.37 L/kg. Further, the half-life in blood in data set [2] (intravenously applied drug) is 2.1 h. Further, in data set [2] (polyethyleneglycol:water:ethanol, 1:1:1), the orally bioavailable is 47%. The “[EC50 F1F0 ATP synthesis/EC50 F1F0 ATP hydrolysis] ratio” value at F1F0 ATP hydrolase [3] is > 5,556.
